Assay results reported in patent US20230173074A1, “BIOCOMPATIBLE MATERIAL AND METHODS FOR MAKING AND USING THE SAME” (PLERYON THERAPEUTICS (SHENZHEN) LIMITED, priority 2020, published 2023).
{3'dT} = capped with 3'-dT; {C6} = six-carbon (C6) cap; m = 2'-O-methyl; r = 2'-OH (RNA); f = 2'-fluoro

Test: Release of aptamer from hydrogel (UV 260 nm)
Details: PBS, 37° C.
From the text: Hydrogel was formed similar to Example 5. An aptamer similar to Macugen of the following sequence of nucleotides and functional groups: CfGmGmAAUfCfAmGmUfGmAmAmUfGmCfUfUfAmUfAmCfAmUfCfCfGm3′(SEQ ID NO:1), with 5′ end caped with 6 carbon (C6) and 3′ end caped with a 3′-dT-S′ and Cy3 fluorescent dye, was used as an aptamer example. Gm or Am and Cf or Uf represent 2-methoxy and 2-fluoro variants of their respective purines and pyrimidines, and C, A, U and G code for cytidylic, adenylic, uridylic and guanylic acids. Hydrogels were formed similar to Example 5, except that the solution before gel formation was added to the API in powder form. The gel was incubated at 37° C. for 2 days before release experiment. For the release experiment, a small portion of gel (between […]) were transferred by a 3 mL disposable plastic pipettes into a 10 ml glass vial at ambient temperature, and the mass was measured for the final release calculation. The glass vial was slowly filled up with 5 ml of PBS solutions to minimize the disturbing of gel. The release was performed at 37° C. in triplicate. At each predetermined time point, 0.5 h, 1 h, 2 h, and 4 h in this case, the sample was gently shake for 10 s and sit at ambient temperature for 10 min before 1000 μl of releasing buffer were taken for UV quantification at 260 nm. The experiments were performed in triplicate.

aptamer: modified RNA aptamer similar to Macugen (SEQ ID NO:1), 5′ C6 cap, 3′-dT and Cy3 dye (CGGAAUCAGUGAAUGCUUAUACAUCCG; sugars from the 5' end fmmrrffmmfmmmfmfffmfmfmfffm, 5' {C6}, 3' {3'dT}, backbone not given here; Cy3 fluorescent dye attached, further chemistry not fully specified)
duration of release from hydrogel (hydrogel Ap1 (FIG. 21)): about 4 hours | duration of release from hydrogel (hydrogel Ap2 (FIG. 22)): about 4 hours
